US7842703B2, “Substituted benzofused derivatives and their use as vanilloid receptor ligands” (Glenmark Pharmaceuticals S.A., priority 2005, dated 2010)

Molecular target: T1, Human TRPV1 expressing CHO cells (Homo sapiens, UniProt Q8NER1)
T1 construct: expressed in transfected cells; host or cells: CHO cells under G-418 selection
Experiment: Screening for TRPV1 antagonist using the 45Calcium uptake assay (inhibition of capsaicin induced cellular uptake of radioactive calcium)
Assay type: cell-based
Settings: for inhibition at 1 µM: CHO; for inhibition at 1 µM / % inhibition of ^45Ca uptake at 1 μM: test compound 1 μM, capsaicin 250 nM, relative to maximum ^45Ca uptake induced by capsaicin alone; for IC50: inhibition of capsaicin (250 nM) induced ^45Ca uptake
Description: The inhibition of TRPV1 receptor activation was followed as inhibition of capsaicin induced cellular uptake of radioactive calcium which represents calcium influx exclusively through the plasma membrane associated TRPV1 receptor.
Stock solution of capsaicin was made in ethanol and test compounds in 100% DMSO. Stock solutions were diluted to appropriate final concentrations in assay buffer keeping the final DMSO concentration between 0.1% and 0.55%.
^45Ca was used at a final concentration of 2.5 μCi/ml (^45Ca, ICN).
Assay buffer was composed of F-12 DMEM medium supplemented with 1.8 mM CaCl2 (final conc.) and 0.1% Bovine serum albumin. (BSA from SIGMA)
Wash buffer was tyrodes solution supplemented with 0.1% BSA and 1.8 mM calcium. Lysis buffer contained 50 mM Tris-HCl, pH7.5, 150 mM NaCl, 1% Triton X-100, 0.5% deoxycholate and 0.1% Sodium dodicyl sulphate (SDS, SIGMA)
Assay was carried out with some modifications the of procedure as described by Toth et. al. (See Toth A et. al., Life Sciences 73 p 487-498, 2003). Human TRPV1 expressing CHO cells were grown in F-12 DMEM (Dulbecco's modified Eagle's medium—GIBCO) medium with 10% FBS (fetal bovine serum Hyclone), 1% penicillin-streptomycin solution, 400 μg/ml of G-418. Cells were seeded 48 h prior to the assay in 96 well plates so as to get ˜50,000 cells per well on the day of experiment. Plates were incubated at 37° C. in the presence of 5% CO2. Cells were then washed twice with 200 μl of assay buffer and re-suspended in 144 μl of the same. Assay was carried out at 30° C. in total volume of 200 μl. Test compounds were added to the cells fifteen minutes before addition of capsaicin, Final concentration of capsaicin in the assay was 250 nM. After 5 minutes of agonist treatment, drug was washed out and wells rinsed with 300 μl of ice cold wash buffer 3×. The cells were lysed in 50 μl lysis buffer for 20 min. 40 μl of cell lysate was mixed with 150 μl of Microscint PS, left overnight for equilibration. Radioactivity in samples was measured as counts per minute (cpm) using Packard Biosciences Top Count. The drug/vehicle/capsaicin treated ^45Ca uptake values were normalized over basal ^45Ca value. Data was expressed as % inhibition of ^45Ca uptake by test compound with respect to maximum ^45Ca uptake induced by capsaicin alone. IC50 value was calculated from dose response curve by nonlinear regression analysis using GraphPadPRISM software.

T1 sequence (Q8NER1 whole entry): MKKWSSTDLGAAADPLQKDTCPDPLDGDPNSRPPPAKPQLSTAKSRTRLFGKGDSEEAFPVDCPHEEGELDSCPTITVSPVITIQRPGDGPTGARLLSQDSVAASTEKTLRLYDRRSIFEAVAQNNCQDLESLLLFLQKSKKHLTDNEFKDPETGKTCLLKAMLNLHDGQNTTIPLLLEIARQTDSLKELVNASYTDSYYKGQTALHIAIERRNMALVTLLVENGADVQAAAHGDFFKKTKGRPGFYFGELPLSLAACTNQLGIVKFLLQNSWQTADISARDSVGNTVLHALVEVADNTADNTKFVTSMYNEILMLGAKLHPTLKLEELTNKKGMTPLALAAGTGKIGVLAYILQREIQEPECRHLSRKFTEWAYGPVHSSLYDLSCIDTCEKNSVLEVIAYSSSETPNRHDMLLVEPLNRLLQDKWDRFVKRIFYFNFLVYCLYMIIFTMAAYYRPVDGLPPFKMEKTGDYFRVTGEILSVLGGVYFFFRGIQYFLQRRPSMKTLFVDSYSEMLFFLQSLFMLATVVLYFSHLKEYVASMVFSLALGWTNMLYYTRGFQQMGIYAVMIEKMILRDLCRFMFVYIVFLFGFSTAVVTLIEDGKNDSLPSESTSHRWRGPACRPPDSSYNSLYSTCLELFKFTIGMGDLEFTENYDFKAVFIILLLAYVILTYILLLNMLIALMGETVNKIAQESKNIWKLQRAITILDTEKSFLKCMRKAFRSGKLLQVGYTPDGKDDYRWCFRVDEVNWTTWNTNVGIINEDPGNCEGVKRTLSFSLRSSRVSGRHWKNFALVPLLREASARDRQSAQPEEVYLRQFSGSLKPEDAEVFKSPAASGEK

inhibition at 1 µM [%] | IC50 [nM] | % inhibition of ^45Ca uptake at 1 μM [%] | SMILES
> 50 | 11.9 | – | O=C(Nc1cccc2cnccc12)NC1CC2(CCC2)Oc2ccc(F)cc21 (racemic) [Example 42, (±) 1-(3,4-Dihydro-6-fluoro-spiro[2H-1-benzopyran-2,1′-cyclobutane]-4-yl)-3-(isoquinolin-5-yl)urea]
– | – | <50 | O=C(Nc1cccc2c(=O)[nH]ccc12)NC1CC2(CCC2)Oc2ccccc21 (centres unmarked) [Example 30, N′-(1-oxo-1,2-dihydroisoquinolin-5-yl)-N-3,3′,4,4′-tetrahydro-2′H-spiro[chromene-2,1′-cyclobutan]-4-ylurea (N′-(1-oxo-1,2-dihydroisoquinolin-5-yl)-N-3,4-dihydro-2H-spiro[chromene-2,1′-cyclobutan]-4-ylurea)]
– | 304 | >50 | O=C(Nc1cccc2cnccc12)NC1CC2(CCC2)Oc2ccccc21 (single isomer, unassigned; (-)) [Example 5, (−) 1-(3,4-Dihydro-spiro-[2H-1-benzopyran-2,1′-cyclobutan]-4-yl)-3-(isoquinolin-5-yl)urea]
> 50 | 551 | – | Cc1nccc2c(NC(=O)NC3CC4(CCC4)Oc4ccccc43)cccc12 (racemic) [Example 8, (±) 1-(3,4-Dihydro-spiro[2H-1-benzopyran-2,1′-cyclobutane]-4-yl)-3-(1-methylisoquinolin-5-yl)urea]
> 50 | 469 | – | Cc1cc2c(NC(=O)NC3CC4(CCC4)Oc4ccc(F)cc43)cccc2cn1 (racemic) [Example 72, (±) 1-(3,4-Dihydro-6-fluoro-spiro[2H-1-benzopyran-2,1′-cyclobutane]-4-yl)-3-(3-methylisoquinolin-5-yl)urea]
19.8 | – | – | O=C(Nc1cccc2ncccc12)NC1CC2(CCC2)Oc2ccccc21 (racemic) [Example 26, (±) 1-(3,4-Dihydrospiro[2H-1-benzopyran-2,1′-cyclobutan]-4-yl)-3-(quinolin-5-yl)urea]
> 50 | 183 | – | Cc1cc2c(NC(=O)NC3CC4(CCC4)Oc4ccccc43)cccc2cn1 (racemic) [Example 7, (±) 1-(3,4-Dihydro-spiro[2H-1-benzopyran-2,1′-cyclobutane]-4-yl)-3-(3-methylisoquinolin-5-yl)urea]
– | – | <50 | O=C(Nc1cccc2nsnc12)NC1CC2(CCC2)Oc2ccccc21 (centres unmarked) [Example 28, N-2,1,3-benzothiadiazol-4-yl-N′-3,3′,4,4′-tetrahydro-2′H-spiro[chromene-2,1′-cyclobutan]-4-ylurea (N-2,1,3-benzothiadiazol-4-yl-N′-3,4-dihydro-2H-spiro[chromene-2,1′-cyclobutan]-4-ylurea)]
– | 171 | 96.12 | O=C(Nc1cccc2cnccc12)NC1CC2(CCOCC2)Oc2ccccc21 (racemic) [Example 2, (±) 1-(2′,3,3′,4,5′,6′-Hexahydrospiro-[2H]-1-benzopyran-2,4′-pyran-4-yl)-3-(isoquinoline-5-yl)urea]
< 50 | – | – | CC(=O)Nc1ccc2c(c1)C(NC(=O)Nc1cccc3cnccc13)CC1(CCC1)O2 (racemic) [Example 78, (±) 1-(6-Acetamido-3,4-dihydro-spiro[2H-1-benzopyran-2,1′-cyclobutane]-4-yl)-3-(isoquinolin-5-yl)urea]
> 50 | 5.2 | – | O=C(Nc1cccc2cnccc12)NC1CC2(CCC2)Oc2ccc(F)cc21 (single isomer, unassigned; (+)) [Example 43, (+) 1-(3,4-Dihydro-6-fluoro-spiro[2H-1-benzopyran-2,1′-cyclobutane]-4-yl)-3-(isoquinolin-5-yl)urea]
> 50 | 45 | – | Cc1cc2c(cc1Cl)C(NC(=O)Nc1cccc3cnccc13)CC1(CCC1)O2 (racemic) [Example 69, (±) 1-(6-Chloro-3,4-dihydro-7-methyl-spiro[2H-1-benzopyran-2,1′-cyclobutane]-4-yl)-3-(isoquinolin-5-yl)urea]
< 50 | – | – | O=C(Nc1cccc2cnccc12)NC1CC2(CCC2)Oc2ccc(Cl)cc21 (single isomer, unassigned; (-)) [Example 64, (−) 1-(6-Chloro-3,4-dihydro-spiro[2H-1-benzopyran-2,1′-cyclobutane]-4-yl)-3-(isoquinolin-5-yl)urea]
– | 2.89 | 100 | O=C(Nc1cccc2cnccc12)NC1CC2(CCC2)Oc2ccccc21 (racemic) [Example 3, (±) 1-(3,4-Dihydro-spiro-[2H-1-benzopyran-2,1′-cyclobutan]-4-yl)-3-(isoquinolin-5-ylurea]

Continued, compound first:

SMILES | inhibition at 1 µM [%] | IC50 [nM] | % inhibition of ^45Ca uptake at 1 μM [%]
O=C(NCc1ccncc1)N[C@H]1CC2(CCC2)Oc2ccccc21 [Example 37] | 0 | – | –
O=C(Nc1ccc(Cl)c2cnccc12)NC1CC2(CCC2)Oc2ccc(Cl)cc21 (racemic) [Example 70, (±) 1-(6-Chloro-3,4-dihydro-spiro[2H-1-benzopyran-2,1′-cyclobutane]-4-yl)-3-(8-chloroisoquinolin-5-yl)urea] | < 50 | – | –
O=C(Nc1cccc2cnccc12)NC1CC2(CCC2)Oc2ccc(OC3CCCC3)cc21 (racemic) [Example 52, (±) 1-(6-Cyclopentyloxy-3,4-dihydro-spiro[2H-1-benzopyran-2,1′-cyclobutane]-4-yl)-3-(isoquinolin-5-yl)urea] | < 50 | – | –
O=C(NC1CC2(CCC2)Oc2ccccc21)N1CCCCC1 (centres unmarked) [Example 39, N-3,4-dihydrospiro[chromene-2,1′-cyclobutan]-4-ylpiperidine-1-carboxamide] | 0 | – | –
O=C(Nc1cccc2cnccc12)NC1CC2(CCC2)Oc2c(F)cc(F)cc21 (single isomer, unassigned; (+)) [Example 59] | > 50 | 7.59 | –
O=C(Nc1cccc2cnccc12)NC1CC2(CCC2)Oc2cc(Cl)c(Cl)cc21 (racemic) [Example 68, (±) 1-(6,7-Dichloro-3,4-dihydro-spiro[2H-1-benzopyran-2,1′-cyclobutane]-4-yl)-3-(isoquinolin-5-yl)urea] | > 50 | 222 | –
N#Cc1cccc2c1OC1(CCC1)CC2NC(=O)Nc1cccc2cnccc12 (racemic) [Example 58, (±) 1-(8-Cyano-3,4-dihydro-spiro[2H-1-benzopyran-2,1′-cyclobutane]-4-yl)-3-(isoquinolin-5-yl)urea] | < 50 | – | –
O=C(NCc1ccco1)NC1CC2(CCC2)Oc2ccccc21 (racemic) [Example 25, (±) 1-(3,4-Dihydro-spiro[2H-1-benzopyran-2,1′-cyclobutan]-4-yl)-3-(2-furylmethyl)urea] | < 50 | – | –
Cc1cc(C)nc(NC(=O)NC2CC3(CCC3)Oc3ccccc32)n1 (racemic) [Example 22, (±) 1-(3,4-Dihydro-spiro[2H-1-benzopyran-2,1′-cyclobutane]-4-yl)-3-(4,6-dimethylpyrimidin-2-yl)urea] | < 50 | – | –
O=C(Nc1cccc2cnccc12)NC1CC2(CCC2)Oc2c(OC(F)F)cccc21 (racemic) [Example 62, (±) 1-(3,4-Dihydro-8-difluoromethoxy-spiro[2H-1-benzopyran-2,1′-cyclobutane]-4-yl)-3-(isoquinolin-5-yl)urea] | < 50 | – | –
